The text below walks through data of US4383113A, “Agricultural sulfonamides” (E. I. Du Pont de Nemours and Company, priority 1981, dated 1983).

One assay deals with cocklebur. Briefly: Test E post-emergence. The class given is in vivo, Xanthium spp. An excerpt:
(§1) The containers used were 25 cm diameter plastic pots filled with fertilized and limed Fallsington silt loam. Plantings of the following weed species were made twice, at a 10-day interval: mustard (Brassica arvensis), cocklebur (Xanthium spp.), morningglory (Ipomoea hederacea), cassia (Cassia tora), velvetleaf (Abutilon theophrasti), alfalfa (used as an indicator species), kochia (Kochia scoparia), sesbania (Sesbania exaltata), Russian thistle (Salsola kali), jimsonweed (Datura stramonium),and nutsedge (Cyperus rotundus). In addition, wheat and barley were planted in separate 15 cm diameter plastic pots filled with the same soil at the time of the early planting only. All plantings were treated with the test chemicals dissolved in a non-phytotoxic solvent immediately following completion of the second planting operation. At this time, the wheat was around 15-17.5 cm tall and the barley 12.5 to 15 cm tall, both in the 2-leaf stage of growth. The weed species of the earliest planting date were from 2.5 to 12.5 cm tall. The rates of application selected were 0.004, 0.007, 0.015 and 0.030 kg/ha for the weed phase and 0.12, 0.25 and 0.50 kg/ha for wheat and barley. The post-emergence part of this test was visually rated for plant response 21 days after treatment, and the pre-emergence part 28 days after treatment.

A further assay relates to nutsedge. Briefly: Test E post-emergence. It is filed as in vivo, Cyperus rotundus.
Source text: as §1

Another assay deals with barley. In words: Test E post-emergence. To be noted: 1/2 kg/ha. The class given is in vivo.
Source text: as §1

The next assay has as its system mustard. Briefly: Test E post-emergence. The class given is in vivo, Brassica arvensis.
Source text: as §1

In assay [1] the test system is purple nutsedge. In words: Test G surface spray. To be noted: high OM. It is filed as in vivo, Cyperus rotundus. From the text:
(§2) Purple nutsedge tubers (Cyperus rotundus, L.) were planted about 2 cm deep in Fallsington silt loam (about 1% organic matter from Delaware) and in Flanagan loam (about 4% organic matter) from Illinois. Five tubers were planted in each 10 cm diameter plastic pot. Treatments recorded in Table XVII were applied in three different ways, i.e., soil surface spray, tuber/soil spray and soil incorporated. In surface sprays, the material was sprayed on the firmed soil surface after planting, but before nutsedge emergence. In tuber/soil sprays, the material was sprayed on exposed tubers and subtending soil before the tubers were covered with untreated soil. Soil incorporated treatments were mixed in the covering soil.
(§3) Immediately after treating, the treated pots were misted with about 0.3 cm of water over a 90 minute period and placed in the greenhouse.

The test system of assay [2] is purple nutsedge. In words: Test G soil incorporated. The class given is in vivo, Cyperus rotundus. The settings on record: .032 kg/ha, low OM.
Source text: as §2, §3

The next assay relates to wheat. In words: Test E post-emergence. The class given is in vivo. The settings on record: 1/2 kg/ha.
Source text: as §1

Structures are written as SMILES.

Regarding `COc1nc(C)nc(NC(=O)NS(=O)(=O)c2ccccc2C(=O)OC(C)C)n1` [drawing 590], the response rating in the assay with cocklebur (1/32 kg/ha) was found to be 10C; with cocklebur (1/64 kg/ha) it was 10C; in the assay on cocklebur (1/128 kg/ha), 10C; with cocklebur (1/256 kg/ha), 10C; with nutsedge (1/32 kg/ha), 10C; in the assay on nutsedge (1/256 kg/ha), 3G. The response rating is reported as 5G with barley; 10C in the assay with mustard (1/32 kg/ha); 10C in the assay on mustard (1/64 kg/ha); 10C with mustard (1/128 kg/ha); 10C in the assay with mustard (1/256 kg/ha).
Turning to `COC(=O)c1ccccc1S(=O)(=O)NC(=O)Nc1nc(OC)cc(OC)n1` [drawing 607], the figures for the “response rating after 4 weeks” value in the assay on purple nutsedge [1] (.008 kg/ha), in the assay on purple nutsedge [1] (.032 kg/ha) and with purple nutsedge [2] were 0, 10C and 10C, respectively.
Consider `COc1nc(NC(=O)NS(=O)(=O)c2ccccc2C(=O)OC(C)C)nc(OC)n1` [drawing 589], for which the response rating in the assay on cocklebur (1/32 kg/ha) came out at 10C; in the assay with cocklebur (1/64 kg/ha), 10C; in the assay on cocklebur (1/128 kg/ha), 10C; in the assay with cocklebur (1/256 kg/ha), 10C; in the assay on nutsedge (1/32 kg/ha) it was 10G; in the assay on wheat, 2G. In addition, the response rating in the assay with mustard (1/32 kg/ha), in the assay on mustard (1/64 kg/ha), in the assay on mustard (1/128 kg/ha) and in the assay with mustard (1/256 kg/ha) was 10C each time.
